Data set [1] relates to LPS-induced microglia activation. The data set can be described thus: Image-based assay of LPS-induced microglia activation (HTS and dose response). The class given is cell-based, rat. Particulars: Rattus norvegicus, Microglia; for inhibition at 10 µM: primary microglia HTS, LPS stimulation, increased cell size (>800 μm^2) as marker of activation, read-out: LPS % inhibition.

A short description of data set [2]: in vitro. Particulars: rat, Cell Toxicity IC50 (uM) [cFib assay].
Data set [3] relates to primary rat microglia. The data set can be described thus: Cell toxicity (dead cells, size <150 μm2) in LPS assay. Particulars: for LPS % cell toxicity: primary microglia HTS, LPS stimulation, decreased size (<150 μm^2) as marker of toxicity; for IC50: read-out: Cell Toxicity IC50 (uM) [LPS assay], LPS assay.
Data set [4] can be described thus: in vitro. Particulars: rat.
Data set [5] relates to fibrin- and LPS-induced microglia activation. The data set can be described thus: cells. The class given is cell-based, rat. Particulars: for inhibition at 10 µM: Rattus norvegicus.
Data set [6] relates to fibrin-induced microglia activation. The data set can be described thus: Image-based assay of fibrin-induced microglia activation (HTS and dose response). The class given is cell-based, rat. Particulars: for IC50 / inhibition at 10 µM: Rattus norvegicus, Microglia; for inhibition at 10 µM: primary microglia HTS, fibrin stimulation, increased cell size (>800 μm^2) as marker of activation, read-out: Fibrin % inhibition.

In data set [7] the test system is primary rat microglia. The data set can be described thus: Cell toxicity (dead cells, size <150 μm2) in coated fibrin (cFib) assay.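 On Fibrin % cell toxicity: share of dead cells sized under 150 µm2 at 10 µM in fibrin-stimulated microglia HTS.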 Particulars: primary microglia HTS, fibrin stimulation; decreased size (<150 μm^2) as marker of toxicity.
Where [8] appears, read: 48 h, Table 1, dose response 0.001-20 μM, triplicates, primary rat microglia, 48 h, read-out: LPS IC50.
The mark [9] stands for this setting: LPS-induced microglia activation, dose response, read-out: LPS IC50 (uM) (Suppl. Table 7).
The mark [10] stands for this setting: dose response, LPS-induced microglia activation, read-out: LPS IC50.
The mark [11] stands for this setting: HTS of 1907 compounds, quadrant by fibrin and LPS inhibition.
[12] abbreviates: Microglia, HTS hit classification, read-out: Hit.
[13] abbreviates: hit classification in microglia HTS, read-out: Cherry-picked Hit (Suppl. Table 7).
Where [14] appears, read: quadrant by fibrin and LPS inhibition in HTS of 1907 compounds.
The mark [15] stands for this setting: 48 h, Table 1, dose response 0.001-20 μM, triplicates, primary rat microglia, 48 h, read-out: Fibrin IC50.
Setting [16] is: dose response, fibrin-induced microglia activation, read-out: Fibrin IC50.
[17] abbreviates: fibrin-induced microglia activation, dose response, read-out: Fibrin IC50 (uM) (Suppl. Table 7).
Where [18] appears, read: Table 3, read-out: LPS IC50 (uM) (Suppl. Table 7).
The mark [19] stands for this setting: Table 6, read-out: LPS IC50 (uM) (Suppl. Table 7).
Setting [20] is: Microglia, Table 3, read-out: Cherry-picked Hit (Suppl. Table 7).
The mark [21] stands for this setting: Table 3, read-out: Fibrin IC50 (uM) (Suppl. Table 7).
[22] abbreviates: Table 6, read-out: Fibrin IC50 (uM) (Suppl. Table 7).

This note sets out measurements from patent publication US20210330611A1, “THERAPY FOR NEUROLOGICAL DISEASES/DISORDERS” (priority 2020, published 2021).

The structures appear in SMILES notation. Where a name gives a salt, the structure may show the parent alone. Read-outs that look alike come from different tables or passages of the source.

One may read the IC50 as the concentration needed to halve the response being measured. For `CC(C)C(=O)c1c(C(C)C)nn2ccccc12` [Ibudilast, reference compound], the IC50 (in data set [1] (setting [8]); in data set [1] (setting [9]); in data set [1] (setting [10]); in the data set “in vitro [2]” (cFib assay); in “in vitro [4]”; in data set [6] (setting [15])) was above 20 µM throughout. Moreover, the IC50 in data set [6] (setting [16]) and in data set [6] (setting [17]) was above 20 µM throughout. Moreover, the inhibition at 10 µM in data set [1] (48 h) was 57%; in data set [5] (setting [12]), above 50%; in data set [5] (setting [13]), above 50%; in data set [6], 75%. Moreover, the “LPS % cell toxicity” value in the data set with primary rat microglia [3] came to 1%. Also, the “Quadrant (FIG. 5b)” value in data set [5] (setting [11]) is “Q2”; in data set [5] (Table 1, screen at 10 μM), “Q2”; in data set [5] (setting [14]) it was “Q2”. For the same molecule, the “Fibrin % cell toxicity” value in the data set on primary rat microglia [7] is 1%.
For `CC(=O)OCC(=O)[C@@]1(O)CC[C@H]2[C@@H]3CCC4=CC(=O)C=C[C@]4(C)[C@@]3(Cl)[C@@H](Cl)C[C@@]21C` [Dichlorisone acetate, reference compound], the 50% inhibitory concentration (IC50) in data set [1] (setting [8]) was 4 µM; in data set [1] (setting [9]), 4 µM; in data set [1] (setting [18]), 4 µM; in data set [1] (setting [19]), 4 µM; in data set [1] (setting [10]), 4 µM; in the data set “in vitro [2]” (Table 3) it was above 20 µM. The IC50 in the data set “in vitro [2]” (cFib assay) is above 20 µM; in “in vitro [2]” (cFib assay, Table 6) it was above 20 µM; with primary rat microglia [3], above 20 µM; in the data set on primary rat microglia [3] (Table 6) it was above 20 µM; in “in vitro [4]”, above 20 µM; in data set [6] (setting [15]), 0.03 µM. Moreover, the concentration for half-maximal inhibition (IC50) in data set [6] (setting [21]), in data set [6] (setting [22]), in data set [6] (setting [16]) and in data set [6] (setting [17]) was 0.03 µM each time. The inhibition at 10 µM in data set [1] (48 h) was 74%; in data set [5] (setting [20]), above 50%; in data set [5] (setting [12]), above 50%; in data set [6] it was 108%. The “LPS % cell toxicity” value in the data set on primary rat microglia [3] worked out at 1%. The “Quadrant (FIG. 5b)” value was “Q2” in data set [5] (setting [11]); “Q2” in data set [5] (Table 1, screen at 10 μM); “Q2” in data set [5] (Table 3, screen at 10 μM); “Q2” in data set [5] (microglia HTS, Table 6); “Q2” in data set [5] (setting [14]). Also, in data set [6], the “Fibrin Selectivity” value is on record as 169. The “Fibrin Selectivity (LOG10)” value in data set [6] is reported as 2.23. The “Fibrin % cell toxicity” value in the data set on primary rat microglia [7] turned out to be 3%.
`CNC(C)(C)Cc1ccccc1` [Mephentermine sulfate, reference compound]: the half-maximal inhibitory concentration (IC50) (in data set [1] (setting [8]); in data set [1] (setting [9]); in data set [1] (setting [10]); in “in vitro [2]” (cFib assay); in “in vitro [4]”; in data set [6] (setting [15])) was above 20 µM in each case. The IC50 in data set [6] (setting [16]) and in data set [6] (setting [17]) was above 20 µM each time. Also, the inhibition at 10 µM in data set [1] (48 h) was 31%; in data set [5] (setting [12]) it was above 50%; in data set [5] (setting [13]) it was above 50%; in data set [6], 60%. Further, in the data set with primary rat microglia [3], the “LPS % cell toxicity” value was determined as 1%. Besides, the “Quadrant (FIG. 5b)” value was “Q3” in data set [5] (setting [11]); “Q3” in data set [5] (Table 1, screen at 10 μM); “Q3” in data set [5] (setting [14]). The “Fibrin % cell toxicity” value with primary rat microglia [7] turned out to be 2%.
Take `OCc1ccccc1O[C@@H]1O[C@H](CO)[C@@H](O)[C@H](O)[C@H]1O` [Salicin, reference compound]: the IC50 (in data set [1] (setting [8]); in data set [1] (setting [9]); in data set [1] (setting [10]); in the data set “in vitro [2]” (cFib assay); in the data set “in vitro [4]”; in data set [6] (setting [15])) was above 20 µM throughout. Moreover, the half-maximal inhibitory concentration (IC50) in data set [6] (setting [16]) and in data set [6] (setting [17]) was above 20 µM each time. Besides, the inhibition at 10 µM in data set [1] (48 h) was 61%; in data set [5] (setting [12]), above 50%; in data set [5] (setting [13]) it was above 50%; in data set [6] it was 76%. Further, the “LPS % cell toxicity” value in the data set on primary rat microglia [3] is reported as 1%. Further, the “Quadrant (FIG. 5b)” value was “Q2” in data set [5] (setting [11]); “Q2” in data set [5] (Table 1, screen at 10 μM); “Q2” in data set [5] (setting [14]). Also, the “Fibrin % cell toxicity” value in the data set with primary rat microglia [7] was found to be 1%.
With `CN1CCN2c3ncccc3Cc3ccccc3C2C1` (centres unmarked) [Mirtazapine, reference compound], the IC50 (in data set [1] (setting [8]); in data set [1] (setting [9]); in data set [1] (setting [10]); in “in vitro [2]” (cFib assay); in the data set “in vitro [4]”; in data set [6] (setting [15])) was above 20 µM each time. Also, the IC50 in data set [6] (setting [16]) and in data set [6] (setting [17]) was above 20 µM each time. Further, the inhibition at 10 µM in data set [1] (48 h) is 36%; in data set [5] (setting [12]), above 50%; in data set [5] (setting [13]), above 50%; in data set [6] it was 57%. Moreover, the “LPS % cell toxicity” value with primary rat microglia [3] was 1%. The “Quadrant (FIG. 5b)” value is “Q3” in data set [5] (setting [11]); “Q3” in data set [5] (Table 1, screen at 10 μM); “Q3” in data set [5] (setting [14]). In addition, the “Fibrin % cell toxicity” value with primary rat microglia [7] was found to be 2%.
For `CC(NCCc1ccc(O)cc1)C(O)c1ccc(O)cc1` (centres unmarked) [Ritodrine hydrochloride, reference compound], the IC50 (in data set [1] (setting [8]); in data set [1] (setting [9]); in data set [1] (setting [18]); in data set [1] (setting [19]); in data set [1] (setting [10]); in the data set “in vitro [2]” (Table 3)) was above 20 µM in each case. Besides, the IC50 was above 20 µM in “in vitro [2]” (cFib assay); above 20 µM in “in vitro [2]” (cFib assay, Table 6); above 20 µM in the data set with primary rat microglia [3]; above 20 µM in the data set with primary rat microglia [3] (Table 6); above 20 µM in “in vitro [4]”; 0.6 µM in data set [6] (setting [15]). For the same molecule, the IC50 in data set [6] (setting [21]), in data set [6] (setting [22]), in data set [6] (setting [16]) and in data set [6] (setting [17]) was 0.6 µM throughout. For the same molecule, the inhibition at 10 µM in data set [1] (48 h) is 36%; in data set [5] (setting [20]), above 50%; in data set [5] (setting [12]) it was above 50%; in data set [6], 51%. In the data set with primary rat microglia [3], the “LPS % cell toxicity” value came to 1%. In addition, the “Quadrant (FIG. 5b)” value in data set [5] (setting [11]) is “Q3”; in data set [5] (Table 1, screen at 10 μM), “Q3”; in data set [5] (Table 3, screen at 10 μM), “Q3”; in data set [5] (microglia HTS, Table 6), “Q3”; in data set [5] (setting [14]) it was “Q3”. For the same molecule, the “Fibrin Selectivity” value is 33 in data set [6] and 33 in data set [6] (fibrin vs LPS, Table 6). Also, the “Fibrin Selectivity (LOG10)” value in data set [6] turned out to be 1.51; in data set [6] (fibrin vs LPS, LOG10, Table 6) it was 1.51. Besides, in the data set with primary rat microglia [7], the “Fibrin % cell toxicity” value was 1%.
Turning to `S=C=NCc1ccccc1` [Benzyl isothiocyanate, reference compound], the IC50 (in data set [1] (setting [8]); in data set [1] (setting [9]); in data set [1] (setting [18]); in data set [1] (setting [10]); in “in vitro [2]” (Table 3); in “in vitro [2]” (cFib assay)) was above 20 µM in each case. Besides, the 50% inhibitory concentration (IC50) in the data set with primary rat microglia [3] was above 20 µM; in the data set “in vitro [4]”, above 20 µM; in data set [6] (setting [15]), 10 µM; in data set [6] (setting [21]), 10 µM; in data set [6] (setting [16]) it was 10 µM; in data set [6] (setting [17]), 10 µM. Besides, the inhibition at 10 µM in data set [1] (48 h) was 68%; in data set [5] (setting [20]) it was above 50%; in data set [5] (setting [12]), above 50%; in data set [6], 77%. Moreover, in the data set on primary rat microglia [3], the “LPS % cell toxicity” value was found to be 2%. In addition, the “Quadrant (FIG. 5b)” value in data set [5] (setting [11]) is “Q2”; in data set [5] (Table 1, screen at 10 μM) it was “Q2”; in data set [5] (Table 3, screen at 10 μM), “Q2”; in data set [5] (setting [14]), “Q2”. The “Fibrin Selectivity” value in data set [6] came out at 2. The “Fibrin Selectivity (LOG10)” value in data set [6] is 0.29. In addition, the “Fibrin % cell toxicity” value with primary rat microglia [7] is listed as 2%.
